Laboratory results: ChEMBL document CHEMBL4825707, “Quantum mechanical study on the activation mechanism of human carbonic anhydrase VII cluster model with bis-histamine schiff bases and bis-spinaceamine derivatives” (Bioorg Med Chem, 2021)

Biological target: Carbonic anhydrase 7 (Homo sapiens) (UniProt P43166)
Assay: Activation of human carbonic anhydrase VII by stopped flow CO2 hydrase assay
Conditions: Brain, filed as activator

Sequence of Carbonic anhydrase 7 (Homo sapiens) (P43166 whole entry): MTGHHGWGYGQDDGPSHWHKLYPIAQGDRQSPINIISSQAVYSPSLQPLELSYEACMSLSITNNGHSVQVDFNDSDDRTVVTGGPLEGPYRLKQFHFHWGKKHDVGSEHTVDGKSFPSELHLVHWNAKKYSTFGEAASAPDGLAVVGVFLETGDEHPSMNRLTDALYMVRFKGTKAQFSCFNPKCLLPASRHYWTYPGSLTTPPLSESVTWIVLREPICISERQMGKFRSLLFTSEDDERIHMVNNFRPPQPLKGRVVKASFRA

SMILES	Ka
C(=N/CCc1c[nH]cn1)/c1cccc(/C=N/CCc2c[nH]cn2)c1	18.7 µM
c1cc(C2NCCc3nc[nH]c32)cc(C2NCCc3nc[nH]c32)c1 (stereo not drawn)	0.039 µM
c1nc2c([nH]1)C(c1ccc(C3NCCc4nc[nH]c43)o1)NCC2 (stereo not drawn)	0.035 µM
c1nc2c([nH]1)C(c1ccc(C3NCCc4nc[nH]c43)cc1)NCC2 (stereo not drawn)	0.032 µM

Second part, the molecule after the results:

Ka	SMILES
21.3 µM	C(=N/CCc1c[nH]cn1)/c1ccccc1/C=N/CCc1c[nH]cn1
9.02 µM	C(=N\CCc1c[nH]cn1)/c1ccc(/C=N/CCc2c[nH]cn2)cc1
37.6 µM	NCCc1c[nH]cn1
0.085 µM	C(=N/CCc1c[nH]cn1)/c1ccc(/C=N/CCc2c[nH]cn2)o1
